This passage reports Ki results from patent US10544150B2, “NK-3 receptor selective antagonist compounds, pharmaceutical composition and methods for use in NK-3 receptors mediated disorders” (Ogeda SA, priority 2010, dated 2020).

human NK-3 receptor, sequence (P29371 whole entry): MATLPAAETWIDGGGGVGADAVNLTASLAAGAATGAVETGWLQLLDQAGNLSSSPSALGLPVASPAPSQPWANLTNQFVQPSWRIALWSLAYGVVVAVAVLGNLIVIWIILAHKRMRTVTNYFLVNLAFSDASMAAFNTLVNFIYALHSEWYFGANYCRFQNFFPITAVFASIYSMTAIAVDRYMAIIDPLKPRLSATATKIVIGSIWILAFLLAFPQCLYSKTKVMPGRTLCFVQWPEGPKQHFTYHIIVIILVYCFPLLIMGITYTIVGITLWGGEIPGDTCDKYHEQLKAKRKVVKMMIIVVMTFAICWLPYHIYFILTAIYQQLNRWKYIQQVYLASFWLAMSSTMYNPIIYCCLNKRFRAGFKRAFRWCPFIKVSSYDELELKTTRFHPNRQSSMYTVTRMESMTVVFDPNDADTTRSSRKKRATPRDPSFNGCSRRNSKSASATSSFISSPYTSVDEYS

The experiment deals with human NK-3 receptor (Homo sapiens (Human), UniProt P29371). Kind of experiment: 3H-SB222200 binding competition assay with human NK-3 receptor. The conditions noted are these: 3H-SB222200 displacement, CHO cell membranes expressing human NK3 receptor; read-out: Ki range. The method in brief:
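Radioligand displacement: 5 nM tritiated SB222200 competed by varying compound concentrations on recombinant CHO membranes bearing human NK3, buffer pH 7.4 with HEPES, NaCl, CaCl2, MgCl2, BSA and saponin. Filter-bound radioactivity quantified; calculated Ki given as ranges from +++ (<500 nM) to # (>5 μM).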
For orientation: Ki means the dissociation constant of the complex between target and ligand, obtained from inhibition or displacement. For `O=C(c1ccc(-c2ccc(F)cc2)cc1)N1CCn2c(nnc2-c2csc(CS(=O)(=O)c3ccc(Cl)cc3)n2)C1` [Compound 200, (3-(2-(((4-chlorophenyl)sulfonyl)methyl)thiazol-4-yl)-5,6-dihydro-[1,2,4]triazolo[4,3-a]pyrazin-7(8H)-yl)(4′-fluoro-[1,1′-biphenyl]-4-yl)methanone], the inhibitory constant (Ki) was in the range of 500 to 1000 nM. With `COc1ccccc1-c1nc(-c2nnc3n2CCN(C(=O)c2ccc(F)cc2)C3)cs1` [Compound 201, (4-fluorophenyl)(3-(2-(2-methoxyphenyl)thiazol-4-yl)-5,6-dihydro-[1,2,4]triazolo[4,3-a]pyrazin-7(8H)-yl)methanone], the inhibition constant (Ki) lay in the range of 1000 to 5000 nM. On to `COc1ccccc1-c1nc(-c2nnc3n2CCN(C(=O)c2ccc(-c4cccs4)cc2)C3)cs1` [Compound 202, (3-(2-(2-methoxyphenyl)thiazol-4-yl)-5,6-dihydro-[1,2,4]triazolo[4,3-a]pyrazin-7(8H)-yl)(4-(thiophen-2-yl)phenyl)methanone], for which the Ki was below 500 nM.

For `COc1ccccc1-c1nc(-c2nnc3n2CCN(C(=O)c2ccc(-c4ccccc4)cc2)C3)cs1` [Compound 203, [1,1′-biphenyl]-4-yl(3-(2-(2-methoxyphenyl)thiazol-4-yl)-5,6-dihydro-[1,2,4]triazolo[4,3-a]pyrazin-7(8H)-yl)methanone], the inhibition constant Ki was 500 to 1000 nM. As for `O=C(c1ccc(-c2ccccc2)cc1)N1CCn2c(nnc2-c2nc(-c3ccc(F)cc3)no2)C1` [Compound 204, [1,1′-biphenyl]-4-yl(3-(3-(4-fluorophenyl)-1,2,4-oxadiazol-5-yl)-5,6-dihydro-[1,2,4]triazolo[4,3-a]pyrazin-7(8H)-yl)methanone], the figure is below 500 nM; as for `O=C(c1ccc(-c2ccc(F)cc2)cc1)N1CCn2c(nnc2-c2nc(-c3ccc(F)cc3)no2)C1` [Compound 205, (4′-fluoro-[1,1′-biphenyl]-4-yl)(3-(3-(4-fluorophenyl)-1,2,4-oxadiazol-5-yl)-5,6-dihydro-[1,2,4]triazolo[4,3-a]pyrazin-7(8H)-yl)methanone], 500 to 1000 nM; as for `O=C(c1ccc(F)cc1)N1CCn2c(nnc2-c2csc(-c3cccc(F)c3)n2)C1` [Compound 206, (4-fluorophenyl)(3-(2-(3-fluorophenyl)thiazol-4-yl)-5,6-dihydro-[1,2,4]triazolo[4,3-a]pyrazin-7(8H)-yl)methanone], 1000 to 5000 nM.

As for `O=C(c1ccc(-c2cccs2)cc1)N1CCn2c(nnc2-c2csc(-c3cccc(F)c3)n2)C1` [Compound 207, (3-(2-(3-fluorophenyl)thiazol-4-yl)-5,6-dihydro-[1,2,4]triazolo[4,3-a]pyrazin-7(8H)-yl)(4-(thiophen-2-yl)phenyl)methanone], the Ki is below 500 nM. The same measure for `CC(C)c1nc(-c2nnc3n2CCN(C(=O)c2ccc(F)cc2)C3)cs1` [Compound 208, (4-fluorophenyl)(3-(2-isopropylthiazol-4-yl)-5,6-dihydro-[1,2,4]triazolo[4,3-a]pyrazin-7(8H)-yl)methanone]: 1000 to 5000 nM. As for `CC1c2nnc(-c3nc(-c4ccc(F)cc4)no3)n2CCN1C(=O)c1ccc(-c2cccs2)cc1` (stereo not shown) [Compound 209, (3-(3-(4-fluorophenyl)-1,2,4-oxadiazol-5-yl)-8-methyl-5,6-dihydro-[1,2,4]triazolo[4,3-a]pyrazin-7(8H)-yl)(4-(thiophen-2-yl)phenyl)methanone], the figure is below 500 nM.

For `O=C(c1ccc(-c2cccs2)cc1)N1CCn2c(nnc2-c2nc(-c3ccccc3)ns2)C1` [Compound 211, (3-(3-phenyl-1,2,4-thiadiazol-5-yl)-5,6-dihydro-[1,2,4]triazolo[4,3-a]pyrazin-7(8H)-yl)(4-(thiophen-2-yl)phenyl)methanone], the Ki was below 500 nM. In the case of `O=C(c1ccc(F)cc1)N1CCn2c(nnc2-c2nc(-c3ccccc3)ns2)C1` [Compound 212, (4-fluorophenyl)(3-(3-phenyl-1,2,4-thiadiazol-5-yl)-5,6-dihydro-[1,2,4]triazolo[4,3-a]pyrazin-7(8H)-yl)methanone], the inhibition constant (Ki) was below 500 nM.

`Cc1ccc(-c2ccc(C(=O)N3CCn4c(-c5csc(-c6ccc(F)cc6)n5)nnc4C3C)cc2)s1` (stereo not shown) [Compound 215, (3-(2-(4-fluorophenyl)thiazol-4-yl)-8-methyl-5,6-dihydro-[1,2,4]triazolo[4,3-a]pyrazin-7(8H)-yl)(4-(5-methylthiophen-2-yl)phenyl)methanone]: the inhibitory constant (Ki) was below 500 nM.

On to `CC1c2nnc(-c3csc(-c4ccc(F)cc4)n3)n2CCN1C(=O)c1ccc(C#N)cc1` (stereo not shown) [Compound 216, 4-(3-(2-(4-fluorophenyl)thiazol-4-yl)-8-methyl-5,6,7,8-tetrahydro-[1,2,4]triazolo[4,3-a]pyrazine-7-carbonyl)benzonitrile], for which the inhibition constant (Ki) was below 500 nM. The same measure for `O=C(c1ccc(-c2ccccc2)cc1)N1CCn2c(nnc2-c2nc(-c3ccccc3)no2)C1` [Compound 217, [1,1′-biphenyl]-4-yl(3-(3-phenyl-1,2,4-oxadiazol-5-yl)-5,6-dihydro-[1,2,4]triazolo[4,3-a]pyrazin-7(8H)-yl)methanone]: below 500 nM; for `O=C(c1ccc(F)cc1)N1CCn2c(nnc2-c2csc(-c3ccncc3)n2)C1` [Compound 218, (4-fluorophenyl)(3-(2-(pyridin-4-yl)thiazol-4-yl)-5,6-dihydro-[1,2,4]triazolo[4,3-a]pyrazin-7(8H)-yl)methanone]: 1000 to 5000 nM. As to `O=C(c1ccc(-c2cccs2)cc1)N1CCn2c(nnc2-c2csc(-c3ccc4ccccc4n3)n2)C1` [Compound 219, (3-(2-(quinolin-2-yl)thiazol-4-yl)-5,6-dihydro-[1,2,4]triazolo[4,3-a]pyrazin-7(8H)-yl)(4-(thiophen-2-yl)phenyl)methanone], the Ki was below 500 nM. As for `Cn1nc(-c2ccccc2)cc1-c1nnc2n1CCN(C(=O)c1ccc(-c3cccs3)cc1)C2` [Compound 220, (3-(1-methyl-3-phenyl-1H-pyrazol-5-yl)-5,6-dihydro-[1,2,4]triazolo[4,3-a]pyrazin-7(8H)-yl)(4-(thiophen-2-yl)phenyl)methanone], the Ki is below 500 nM. Regarding `CN(C)c1ccc(-c2nc(-c3nnc4n3CCN(C(=O)c3ccc(F)cc3)C4)cs2)cc1` [Compound 221, (3-(2-(4-(dimethylamino)phenyl)thiazol-4-yl)-5,6-dihydro-[1,2,4]triazolo[4,3-a]pyrazin-7(8H)-yl)(4-fluorophenyl)methanone], the inhibition constant (Ki) is 500 to 1000 nM. As for `Cn1nc(-c2nnc3n2CCN(C(=O)c2ccc(-c4cccs4)cc2)C3)cc1-c1ccccc1` [Compound 222, (3-(1-methyl-5-phenyl-1H-pyrazol-3-yl)-5,6-dihydro-[1,2,4]triazolo[4,3-a]pyrazin-7(8H)-yl)(4-(thiophen-2-yl)phenyl)methanone], the Ki was below 500 nM.

Take `O=C(c1ccc(-c2ccc(F)cc2)cc1)N1CCn2c(nnc2-c2nc(-c3ccccc3)no2)C1` [Compound 223, (4′-fluoro-[1,1′-biphenyl]-4-yl)(3-(3-phenyl-1,2,4-oxadiazol-5-yl)-5,6-dihydro-[1,2,4]triazolo[4,3-a]pyrazin-7(8H)-yl)methanone]: the inhibition constant Ki is below 500 nM.

In the case of `O=C(c1ccc(-c2cccs2)cc1)N1CCn2c(nnc2-c2csc(-c3ccccn3)n2)C1` [Compound 224, (3-(2-(pyridin-2-yl)thiazol-4-yl)-5,6-dihydro-[1,2,4]triazolo[4,3-a]pyrazin-7(8H)-yl)(4-(thiophen-2-yl)phenyl)methanone], the inhibition constant Ki is below 500 nM.
